In US8399480B2, “Hydroxymethyl pyrrolidines as beta 3 adrenergic receptor agonists” (Merck Sharp & Dohme Corp., priority 2008, dated 2013) one finds EC50 data, which are given here for 47 compounds.

SMILES strings stand for the structures. A value given as a limit tells only on which side of the number the result lay.

The target of the test is T1, human β3 adrenergic receptor (Homo sapiens, UniProt P13945).
T1 construct: expressed in transfected cells; host or cells: Chinese hamster ovary (CHO) cells, stably transfected
T1 sequence (P13945 whole entry): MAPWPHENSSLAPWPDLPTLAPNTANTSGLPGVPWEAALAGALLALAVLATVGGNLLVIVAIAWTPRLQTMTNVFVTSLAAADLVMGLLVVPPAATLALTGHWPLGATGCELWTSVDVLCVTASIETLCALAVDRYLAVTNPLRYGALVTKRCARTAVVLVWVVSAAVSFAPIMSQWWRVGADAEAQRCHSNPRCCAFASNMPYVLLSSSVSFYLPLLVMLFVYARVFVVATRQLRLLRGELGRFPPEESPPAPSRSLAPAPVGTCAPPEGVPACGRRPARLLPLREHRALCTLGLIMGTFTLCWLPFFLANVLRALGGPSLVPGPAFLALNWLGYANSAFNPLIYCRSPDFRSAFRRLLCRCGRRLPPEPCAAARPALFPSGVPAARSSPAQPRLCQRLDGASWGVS
As to the kind of experiment: Functional assay: cAMP production (LANCE TR-FRET) in CHO cells stably transfected with cloned β3 adrenergic receptor. The test is classed as cell-based. The following applies: Table 5; read-out: Human β3 Functional. The method, then: Chinese hamster ovary (CHO) cells, stably transfected with the cloned β-adrenergic receptor (β1, β2 or β3) are harvested after 3 days of subculturing. Harvesting of cells is done with Enzyme-free Dissociation Media (Specialty Media). Cells are then counted and resuspended in assay buffer (Hank's Balanced salt solution supplemented with 5 mM HEPES, 0.1% BSA) containing a phosphodiesterase inhibitor (IBMX, 0.6 mM). The reaction is initiated by mixing 6,000 cells in 6 μL with 6 μL Alexa Fluor labeled cAMP antibody (LANCE™ kit) which is then added to an assay well containing 12 μL of compound (diluted in assay buffer to 2× final concentration). The reaction proceeds for 30 min at room temperature and is terminated by the addition of 24 μL detection buffer (LANCE™ kit). The assay plate is then incubated for 1 h at room temperature and time-resolved fluorescence measured on a Perkin Elmer Envision reader or equivalent. The unknown cAMP level is determined by comparing fluorescence levels to a cAMP standard curve.
The non-selective, full agonist β-adrenergic ligand isoproterenol is used at all three receptors to determine maximal stimulation. […] Data are analyzed using Microsoft Excel and Graphpad Prism or an internally developed data analysis software package.
On the technique in general: cAMP levels reflect the balance of adenylyl cyclase and phosphodiesterase activity.
In the case of `O=C(Nc1ccc(C[C@@H]2CC[C@H]([C@H](O)c3ccccc3)N2)cc1)C1CCc2sc(F)nc21` (single isomer, unassigned) [Example 146], the EC50 is < 1 nM.

As to `O=C(Nc1ccc(C[C@@H]2CC[C@H]([C@H](O)c3ccccc3)N2)cc1)C1CCc2sc(F)nc21` (single isomer, unassigned) [Example 147], the EC50 was < 1 nM.

As for `Cc1nnc2n1CCCC2C(=O)Nc1ccc(C[C@@H]2CC[C@H]([C@H](O)c3ccccc3)N2)cc1` (single isomer, unassigned) [Example 150], the EC50 was 1 to 10 nM.

Consider `Cc1nnc2n1CCCC2C(=O)Nc1ccc(C[C@@H]2CC[C@H]([C@H](O)c3ccccc3)N2)cc1` (single isomer, unassigned) [Example 151], for which the EC50 was 1 to 10 nM.

In the case of `O=C(Nc1ccc(C[C@@H]2CC[C@H]([C@H](O)c3ccccc3)N2)cc1)C1CCCn2nnnc21` (single isomer, unassigned) [Example 152], the EC50 is 11 to 100 nM.

For the compound `O=C(Nc1ccc(C[C@@H]2CC[C@H]([C@H](O)c3ccccc3)N2)cc1)C1CCCn2nnnc21` (single isomer, unassigned) [Example 153], the EC50 is 11 to 100 nM.

`O=C(Nc1ccc(C[C@@H]2CC[C@H]([C@H](O)c3ccccc3)N2)cc1)C1CCCn2ccnc21` (single isomer, unassigned) [Example 154]: the EC50 fell in the range of 1000 to 3000 nM.

Take `O=C(Nc1ccc(C[C@@H]2CC[C@H]([C@H](O)c3ccccc3)N2)cc1)C1CCCn2ccnc21` (single isomer, unassigned) [Example 155]: the EC50 lay within 101 to 1000 nM.

As to `O=C(Nc1ccc(C[C@@H]2CC[C@H]([C@H](O)c3ccccc3)N2)cc1)C1CCCc2ccnn21` (single isomer, unassigned) [Example 156], the EC50 was in the range of 1 to 10 nM.

`O=C(Nc1ccc(C[C@@H]2CC[C@H]([C@H](O)c3ccccc3)N2)cc1)C1CCCc2ccnn21` (single isomer, unassigned) [Example 157]: the EC50 was 11 to 100 nM.

In the case of `CC(C(=O)Nc1ccc(C[C@@H]2CC[C@H]([C@H](O)c3ccccc3)N2)cc1)n1cccnc1=O` (single isomer, unassigned) [Example 160], the EC50 fell in the range of 1 to 10 nM.

For `CC(C(=O)Nc1ccc(C[C@@H]2CC[C@H]([C@H](O)c3ccccc3)N2)cc1)n1cccnc1=O` (single isomer, unassigned) [Example 161], the EC50 was < 1 nM.

With `CC(C(=O)Nc1ccc(C[C@@H]2CC[C@H]([C@H](O)c3ccccc3)N2)cc1)n1ncccc1=O` (single isomer, unassigned) [Example 162], the EC50 lay within 1 to 10 nM.

With `Cc1ccc(=O)n(C(C)C(=O)Nc2ccc(C[C@@H]3CC[C@H]([C@H](O)c4ccccc4)N3)cc2)n1` (single isomer, unassigned) [Example 165], the EC50 lay in the range of 1 to 10 nM.

Regarding `CC(C(=O)Nc1ccc(C[C@@H]2CC[C@H]([C@H](O)c3ccccc3)N2)cc1)n1cnc2ccccc2c1=O` (single isomer, unassigned) [Example 166], the EC50 is 1 to 10 nM.

`CC(C(=O)Nc1ccc(C[C@@H]2CC[C@H]([C@H](O)c3ccccc3)N2)cc1)n1cnc2ccccc2c1=O` (single isomer, unassigned) [Example 167]: the EC50 was < 1 nM.

Consider `CC(C(=O)Nc1ccc(C[C@@H]2CC[C@H]([C@H](O)c3ccccc3)N2)cc1)c1nnc[nH]1` (single isomer, unassigned) [Example 168], for which the EC50 lay in the range of 1 to 10 nM.

For `CC(C(=O)Nc1ccc(C[C@@H]2CC[C@H]([C@H](O)c3ccccc3)N2)cc1)n1cnnn1` (single isomer, unassigned) [Example 172], the EC50 lay within 1 to 10 nM.

Regarding `CC(C(=O)Nc1ccc(C[C@@H]2CC[C@H]([C@H](O)c3ccccc3)N2)cc1)n1cnnn1` (single isomer, unassigned) [Example 173], the EC50 is 1 to 10 nM.

Take `CC(C(=O)Nc1ccc(C[C@@H]2CC[C@H]([C@H](O)c3ccccc3)N2)cc1)n1cncn1` (single isomer, unassigned) [Example 176]: the EC50 was 1 to 10 nM.

Regarding `CC(C(=O)Nc1ccc(C[C@@H]2CC[C@H]([C@H](O)c3ccccc3)N2)cc1)n1cncn1` (single isomer, unassigned) [Example 177], the EC50 is 1 to 10 nM.

In the case of `CC(C(=O)Nc1ccc(C[C@@H]2CC[C@H]([C@H](O)c3ccccc3)N2)cc1)n1nccn1` (single isomer, unassigned) [Example 178], the EC50 is 1 to 10 nM.

Turning to `CC(C(=O)Nc1ccc(C[C@@H]2CC[C@H]([C@H](O)c3ccccc3)N2)cc1)n1nccn1` (single isomer, unassigned) [Example 179], the EC50 is 1 to 10 nM.

Consider `CC(C(=O)Nc1ccc(C[C@@H]2CC[C@H]([C@H](O)c3ccccc3)N2)cc1)n1cccn1` (single isomer, unassigned) [Example 181], for which the EC50 lay in the range of 1 to 10 nM.

Turning to `CC(C(=O)Nc1ccc(C[C@@H]2CC[C@H]([C@H](O)c3ccccc3)N2)cc1)n1ccnn1` (single isomer, unassigned) [Example 182], the EC50 was 11 to 100 nM.

On to `CC(C(=O)Nc1ccc(C[C@@H]2CC[C@H]([C@H](O)c3ccccc3)N2)cc1)n1ccnn1` (single isomer, unassigned) [Example 183], for which the EC50 fell in the range of 1 to 10 nM.

As to `Cc1cc(C(C)C(=O)Nc2ccc(C[C@@H]3CC[C@H]([C@H](O)c4ccccc4)N3)cc2)[nH]n1` (single isomer, unassigned) [Example 184], the EC50 fell in the range of 11 to 100 nM.

In the case of `Cc1cc(C(C)C(=O)Nc2ccc(C[C@@H]3CC[C@H]([C@H](O)c4ccccc4)N3)cc2)[nH]n1` (single isomer, unassigned) [Example 185], the EC50 lay in the range of 1 to 10 nM.

`CC(C(=O)Nc1ccc(CC2CCC(C(O)c3ccccc3)N2)cc1)c1ccn(C)n1` (single isomer, unassigned) [Example 186]: the EC50 was in the range of 101 to 1000 nM.

With `CC(C(=O)Nc1ccc(CC2CCC(C(O)c3ccccc3)N2)cc1)c1ccn(C)n1` (single isomer, unassigned) [Example 187], the EC50 fell in the range of 1 to 10 nM.

Consider `COC(=O)c1cn(C(C)C(=O)Nc2ccc(C[C@@H]3CC[C@H]([C@H](O)c4ccccc4)N3)cc2)nn1` (single isomer, unassigned) [Example 188], for which the EC50 is 1 to 10 nM.

Take `COC(=O)c1cn(C(C)C(=O)Nc2ccc(C[C@@H]3CC[C@H]([C@H](O)c4ccccc4)N3)cc2)nn1` (single isomer, unassigned) [Example 189]: the EC50 was in the range of 11 to 100 nM.

For the compound `CC(C(=O)Nc1ccc(C[C@@H]2CC[C@H]([C@H](O)c3ccccc3)N2)cc1)n1cc(C(=O)O)nn1` (single isomer, unassigned) [Example 190], the EC50 fell in the range of 11 to 100 nM.

For the compound `CC(C(=O)Nc1ccc(C[C@@H]2CC[C@H]([C@H](O)c3ccccc3)N2)cc1)n1cc(C(=O)O)nn1` (single isomer, unassigned) [Example 191], the EC50 was in the range of 11 to 100 nM.

For the compound `CC(C(=O)Nc1ccc(C[C@@H]2CC[C@H]([C@H](O)c3ccccc3)N2)cc1)n1cc(C(N)=O)nn1` (single isomer, unassigned) [Example 192], the EC50 fell in the range of 1 to 10 nM.

On to `CC(C(=O)Nc1ccc(C[C@@H]2CC[C@H]([C@H](O)c3ccccc3)N2)cc1)n1cc(C(N)=O)nn1` (single isomer, unassigned) [Example 193], for which the EC50 lay in the range of 11 to 100 nM.

As for `COC(=O)c1cnnn1C(C)C(=O)Nc1ccc(C[C@@H]2CC[C@H]([C@H](O)c3ccccc3)N2)cc1` (single isomer, unassigned) [Example 194], the EC50 was 11 to 100 nM.

On to `COC(=O)c1cnnn1C(C)C(=O)Nc1ccc(C[C@@H]2CC[C@H]([C@H](O)c3ccccc3)N2)cc1` (single isomer, unassigned) [Example 195], for which the EC50 is 1 to 10 nM.

In the case of `CC(C(=O)Nc1ccc(C[C@@H]2CC[C@H]([C@H](O)c3ccccc3)N2)cc1)n1nncc1C(=O)O` (single isomer, unassigned) [Example 196], the EC50 was 1 to 10 nM.

Consider `CC(C(=O)Nc1ccc(C[C@@H]2CC[C@H]([C@H](O)c3ccccc3)N2)cc1)n1nncc1C(=O)O` (single isomer, unassigned) [Example 197], for which the EC50 lay in the range of 1 to 10 nM.

Turning to `CC(C(=O)Nc1ccc(C[C@@H]2CC[C@H]([C@H](O)c3ccccc3)N2)cc1)n1nncc1C(N)=O` (single isomer, unassigned) [Example 198], the EC50 was in the range of 11 to 100 nM.

On to `CC(C(=O)Nc1ccc(C[C@@H]2CC[C@H]([C@H](O)c3ccccc3)N2)cc1)n1nncc1C(N)=O` (single isomer, unassigned) [Example 199], for which the EC50 lay within 1 to 10 nM.

Turning to `CC(C(=O)Nc1ccc(C[C@@H]2CC[C@H]([C@H](O)c3ccccc3)N2)cc1)c1nccs1` (single isomer, unassigned) [Example 200], the EC50 is < 1 nM.

For the compound `CC(C(=O)Nc1ccc(C[C@@H]2CC[C@H]([C@H](O)c3ccccc3)N2)cc1)c1nccs1` (single isomer, unassigned) [Example 201], the EC50 fell in the range of 1 to 10 nM.

For `CC(C(=O)Nc1ccc(C[C@@H]2CC[C@H]([C@H](O)c3ccccc3)N2)cc1)n1ccccc1=O` (single isomer, unassigned) [Example 202], the EC50 is 1 to 10 nM.

In the case of `CC(C(=O)Nc1ccc(C[C@@H]2CC[C@H]([C@H](O)c3ccccc3)N2)cc1)c1ccccn1` (single isomer, unassigned) [Example 204], the EC50 fell in the range of 1 to 10 nM.

`CC(C(=O)Nc1ccc(C[C@@H]2CC[C@H]([C@H](O)c3ccccc3)N2)cc1)c1ccccn1` (single isomer, unassigned) [Example 205]: the EC50 is 1 to 10 nM.
